These results are taken from ChEMBL document CHEMBL3414527, “Engineering potent and selective analogues of GpTx-1, a tarantula venom peptide antagonist of the Na(V)1.7 sodium channel” (J Med Chem, 2015).

A word on the pIC50: it is the negative decadic logarithm of the IC50, by convention in mol/L.

Assay [1] deals with Sodium channel protein type 9 subunit alpha (Homo sapiens, UniProt Q15858). Kind of assay: Inhibition of human NaV1.7 at -140 mV holding potential by whole-cell patch clamp assay. In general terms: The patch-clamp technique gives a direct electrical read-out from membranes.
Assay [2] deals with Sodium channel protein type 5 subunit alpha (Homo sapiens, UniProt Q14524). Put plainly: Inhibition of human NaV1.5 at -140 mV holding potential by whole-cell patch clamp assay.

pIC50: −log10 of the molar value. Bridge positions count the residues as written; N and C are the ends. Peptide text beside a SMILES is read from it. Where only a bound is given, the exact number is not on record here.

Sequence of Sodium channel protein type 5 subunit alpha (Q14524 whole entry): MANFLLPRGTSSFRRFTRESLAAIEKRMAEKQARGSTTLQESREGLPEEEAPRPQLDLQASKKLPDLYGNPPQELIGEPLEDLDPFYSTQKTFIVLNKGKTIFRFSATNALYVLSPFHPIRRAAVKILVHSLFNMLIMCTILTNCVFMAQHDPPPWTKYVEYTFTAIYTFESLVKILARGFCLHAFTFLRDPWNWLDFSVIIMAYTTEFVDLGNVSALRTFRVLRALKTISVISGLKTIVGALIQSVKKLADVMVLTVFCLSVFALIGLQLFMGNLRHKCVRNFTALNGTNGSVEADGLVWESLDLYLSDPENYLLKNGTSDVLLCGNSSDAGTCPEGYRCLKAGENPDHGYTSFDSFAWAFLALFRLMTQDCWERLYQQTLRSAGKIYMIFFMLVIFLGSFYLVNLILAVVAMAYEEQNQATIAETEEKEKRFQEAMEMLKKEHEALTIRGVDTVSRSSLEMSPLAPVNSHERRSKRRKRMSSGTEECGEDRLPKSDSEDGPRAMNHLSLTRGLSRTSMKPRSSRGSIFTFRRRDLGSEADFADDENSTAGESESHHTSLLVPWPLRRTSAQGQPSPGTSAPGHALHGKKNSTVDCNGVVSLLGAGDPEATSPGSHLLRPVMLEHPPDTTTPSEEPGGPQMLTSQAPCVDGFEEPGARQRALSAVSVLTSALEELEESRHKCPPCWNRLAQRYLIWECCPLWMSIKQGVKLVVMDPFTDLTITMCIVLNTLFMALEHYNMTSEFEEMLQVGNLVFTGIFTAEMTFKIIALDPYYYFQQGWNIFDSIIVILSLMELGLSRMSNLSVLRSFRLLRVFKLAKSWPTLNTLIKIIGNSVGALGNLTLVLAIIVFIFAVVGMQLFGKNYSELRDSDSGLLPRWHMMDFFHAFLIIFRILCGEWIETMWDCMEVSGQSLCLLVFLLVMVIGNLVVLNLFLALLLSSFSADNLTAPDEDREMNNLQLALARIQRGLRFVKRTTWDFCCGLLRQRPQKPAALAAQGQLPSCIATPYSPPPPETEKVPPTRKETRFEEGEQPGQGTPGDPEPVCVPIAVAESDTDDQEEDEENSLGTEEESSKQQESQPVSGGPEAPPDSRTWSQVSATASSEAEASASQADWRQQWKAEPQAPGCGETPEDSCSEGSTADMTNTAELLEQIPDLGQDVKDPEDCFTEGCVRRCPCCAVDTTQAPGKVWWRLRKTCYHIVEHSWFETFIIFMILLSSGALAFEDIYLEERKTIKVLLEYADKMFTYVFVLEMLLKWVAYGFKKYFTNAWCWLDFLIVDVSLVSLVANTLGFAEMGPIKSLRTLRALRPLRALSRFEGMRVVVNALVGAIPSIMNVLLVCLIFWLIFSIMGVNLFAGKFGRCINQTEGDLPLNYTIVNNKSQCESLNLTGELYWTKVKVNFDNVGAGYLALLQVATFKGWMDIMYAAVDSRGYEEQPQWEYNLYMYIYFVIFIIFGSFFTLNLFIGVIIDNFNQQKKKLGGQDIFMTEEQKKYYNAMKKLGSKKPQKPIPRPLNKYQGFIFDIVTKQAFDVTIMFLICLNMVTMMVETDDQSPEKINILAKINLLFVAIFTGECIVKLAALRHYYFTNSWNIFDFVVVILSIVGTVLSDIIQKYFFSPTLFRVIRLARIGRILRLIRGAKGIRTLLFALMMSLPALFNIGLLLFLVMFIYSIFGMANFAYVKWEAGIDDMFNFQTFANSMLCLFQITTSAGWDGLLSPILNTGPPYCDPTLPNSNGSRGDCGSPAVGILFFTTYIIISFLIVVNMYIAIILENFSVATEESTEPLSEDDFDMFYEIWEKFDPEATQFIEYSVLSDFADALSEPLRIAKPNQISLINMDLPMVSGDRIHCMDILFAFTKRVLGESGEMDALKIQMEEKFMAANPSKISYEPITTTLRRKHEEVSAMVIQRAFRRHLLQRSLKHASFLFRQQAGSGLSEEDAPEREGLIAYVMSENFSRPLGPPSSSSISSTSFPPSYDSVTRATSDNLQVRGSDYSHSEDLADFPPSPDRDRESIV
Sequence of Sodium channel protein type 9 subunit alpha (Q15858 whole entry): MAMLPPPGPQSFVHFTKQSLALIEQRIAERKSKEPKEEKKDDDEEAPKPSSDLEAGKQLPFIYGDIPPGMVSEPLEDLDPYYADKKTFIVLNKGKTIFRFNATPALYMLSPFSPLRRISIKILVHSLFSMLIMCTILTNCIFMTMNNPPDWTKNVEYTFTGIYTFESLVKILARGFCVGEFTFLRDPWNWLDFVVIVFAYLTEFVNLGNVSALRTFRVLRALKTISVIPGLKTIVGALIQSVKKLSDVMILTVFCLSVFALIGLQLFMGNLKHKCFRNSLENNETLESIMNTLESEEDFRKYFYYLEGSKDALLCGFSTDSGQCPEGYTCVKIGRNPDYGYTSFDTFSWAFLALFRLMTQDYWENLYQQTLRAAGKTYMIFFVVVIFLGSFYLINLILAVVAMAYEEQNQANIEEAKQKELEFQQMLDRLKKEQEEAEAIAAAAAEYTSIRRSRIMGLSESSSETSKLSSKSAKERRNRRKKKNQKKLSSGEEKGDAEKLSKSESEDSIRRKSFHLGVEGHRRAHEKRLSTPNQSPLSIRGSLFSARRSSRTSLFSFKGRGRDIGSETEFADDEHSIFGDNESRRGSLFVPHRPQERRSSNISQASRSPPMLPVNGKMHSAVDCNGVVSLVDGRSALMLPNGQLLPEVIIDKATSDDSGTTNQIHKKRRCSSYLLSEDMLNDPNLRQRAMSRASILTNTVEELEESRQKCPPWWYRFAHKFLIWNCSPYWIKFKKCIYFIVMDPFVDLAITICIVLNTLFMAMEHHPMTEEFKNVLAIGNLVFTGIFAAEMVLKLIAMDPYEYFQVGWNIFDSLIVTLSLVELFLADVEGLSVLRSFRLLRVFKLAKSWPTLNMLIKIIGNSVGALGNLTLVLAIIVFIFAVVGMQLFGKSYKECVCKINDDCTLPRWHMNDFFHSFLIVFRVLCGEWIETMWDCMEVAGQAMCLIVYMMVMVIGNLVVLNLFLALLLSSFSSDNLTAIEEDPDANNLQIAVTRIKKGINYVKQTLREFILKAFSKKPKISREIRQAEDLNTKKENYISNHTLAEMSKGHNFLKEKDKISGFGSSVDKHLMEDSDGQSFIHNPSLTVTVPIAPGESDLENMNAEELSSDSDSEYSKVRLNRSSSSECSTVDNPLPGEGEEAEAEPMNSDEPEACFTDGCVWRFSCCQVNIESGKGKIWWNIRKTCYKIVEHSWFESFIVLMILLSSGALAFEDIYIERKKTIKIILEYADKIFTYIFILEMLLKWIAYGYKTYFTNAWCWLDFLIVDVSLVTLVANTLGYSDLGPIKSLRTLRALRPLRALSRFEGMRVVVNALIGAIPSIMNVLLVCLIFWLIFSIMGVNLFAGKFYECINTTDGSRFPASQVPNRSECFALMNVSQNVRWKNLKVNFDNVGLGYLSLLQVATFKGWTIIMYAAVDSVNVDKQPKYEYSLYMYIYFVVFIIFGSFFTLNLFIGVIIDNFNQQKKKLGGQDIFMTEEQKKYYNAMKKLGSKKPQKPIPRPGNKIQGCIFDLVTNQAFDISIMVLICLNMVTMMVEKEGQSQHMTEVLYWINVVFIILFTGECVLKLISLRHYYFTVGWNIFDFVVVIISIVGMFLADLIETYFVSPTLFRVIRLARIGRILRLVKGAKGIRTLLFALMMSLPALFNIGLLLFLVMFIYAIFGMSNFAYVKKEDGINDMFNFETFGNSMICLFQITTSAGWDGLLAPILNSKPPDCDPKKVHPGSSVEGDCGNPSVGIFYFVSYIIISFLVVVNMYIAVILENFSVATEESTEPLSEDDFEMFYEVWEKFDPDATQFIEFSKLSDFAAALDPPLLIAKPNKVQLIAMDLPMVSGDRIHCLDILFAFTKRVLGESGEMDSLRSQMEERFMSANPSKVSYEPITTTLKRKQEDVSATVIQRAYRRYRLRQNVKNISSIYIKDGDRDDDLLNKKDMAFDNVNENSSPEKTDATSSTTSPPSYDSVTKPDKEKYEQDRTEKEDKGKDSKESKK

`CC[C@H](C)[C@@H]1NC(=O)[C@@H]2CSSC[C@@H]3NC(=O)[C@H](C(C)C)NC(=O)[C@H](CC(C)C)NC(=O)[C@H](CC(N)=O)NC(=O)[C@@H]4CCCN4C(=O)[C@H](CCCNC(=N)N)NC(=O)[C@H](CSSC[C@H](NC(=O)[C@@H](N)CC(=O)O)C(=O)N[C@@H](CC(C)C)C(=O)NCC(=O)N[C@@H](CC4CCCCC4)C(=O)N[C@@H](CCSC)C(=O)N[C@@H](CCCNC(=N)N)C(=O)N[C@@H](CCCCN)C(=O)N2)NC(=O)[C@H](CSSC[C@@H](C(=O)N[C@@H](CCCCN)C(=O)N[C@@H](Cc2ccc(O)cc2)C(=O)N[C@H](C(=O)N[C@@H](Cc2ccccc2)C(N)=O)C(C)C)NC(=O)[C@H](Cc2c[nH]c4ccccc24)NC(=O)[C@H](CCCCN)NC(=O)[C@H](Cc2cnc[nH]2)NC(=O)[C@H]([C@@H](C)O)NC(=O)[C@H](CCCNC(=N)N)NC(=O)[C@H](CO)NC3=O)NC(=O)[C@H](CCCCN)NC(=O)[C@H](CC(=O)O)NC(=O)[C@H](CC(N)=O)NC(=O)[C@H](CC(=O)O)NC(=O)[C@@H]2CCCN2C1=O`: the pIC50 in assay [1] was 8.40; in assay [2] it was 5.46. Turning to `CC[C@H](C)[C@@H]1NC(=O)[C@@H]2CSSC[C@@H]3NC(=O)[C@H](C(C)C)NC(=O)[C@H](CC(C)C)NC(=O)[C@H](CC(N)=O)NC(=O)[C@@H]4CCCN4C(=O)[C@H](CCCNC(=N)N)NC(=O)[C@H](CSSC[C@H](NC(=O)[C@@H](N)CC(=O)O)C(=O)N[C@@H](CC(C)C)C(=O)NCC(=O)N[C@@H](C4CCCCC4)C(=O)N[C@@H](CCSC)C(=O)N[C@@H](CCCNC(=N)N)C(=O)N[C@@H](CCCCN)C(=O)N2)NC(=O)[C@H](CSSC[C@@H](C(=O)N[C@@H](CCCCN)C(=O)N[C@@H](Cc2ccc(O)cc2)C(=O)N[C@H](C(=O)N[C@@H](Cc2ccccc2)C(N)=O)C(C)C)NC(=O)[C@H](Cc2c[nH]c4ccccc24)NC(=O)[C@H](CCCCN)NC(=O)[C@H](Cc2cnc[nH]2)NC(=O)[C@H]([C@@H](C)O)NC(=O)[C@H](CCCNC(=N)N)NC(=O)[C@H](CO)NC3=O)NC(=O)[C@H](CCCCN)NC(=O)[C@H](CC(=O)O)NC(=O)[C@H](CC(N)=O)NC(=O)[C@H](CC(=O)O)NC(=O)[C@@H]2CCCN2C1=O`, the negative logarithm of the IC50 (pIC50) in assay [1] is 8.22; in assay [2] it was less than 5.00. Regarding `CC[C@H](C)[C@@H]1NC(=O)[C@@H]2CSSC[C@@H]3NC(=O)[C@H](C(C)C)NC(=O)[C@H](CC(C)C)NC(=O)[C@H](CC(N)=O)NC(=O)[C@@H]4CCCN4C(=O)[C@H](CCCNC(=N)N)NC(=O)[C@H](CSSC[C@H](NC(=O)[C@@H](N)CC(=O)O)C(=O)N[C@@H](CC(C)C)C(=O)NCC(=O)N[C@@H](Cc4ccc(I)cc4)C(=O)N[C@@H](CCSC)C(=O)N[C@@H](CCCNC(=N)N)C(=O)N[C@@H](CCCCN)C(=O)N2)NC(=O)[C@H](CSSC[C@@H](C(=O)N[C@@H](CCCCN)C(=O)N[C@@H](Cc2ccc(O)cc2)C(=O)N[C@H](C(=O)N[C@@H](Cc2ccccc2)C(N)=O)C(C)C)NC(=O)[C@H](Cc2c[nH]c4ccccc24)NC(=O)[C@H](CCCCN)NC(=O)[C@H](Cc2cnc[nH]2)NC(=O)[C@H]([C@@H](C)O)NC(=O)[C@H](CCCNC(=N)N)NC(=O)[C@H](CO)NC3=O)NC(=O)[C@H](CCCCN)NC(=O)[C@H](CC(=O)O)NC(=O)[C@H](CC(N)=O)NC(=O)[C@H](CC(=O)O)NC(=O)[C@@H]2CCCN2C1=O`, the results for the pIC50 in assay [1] and in assay [2] were 6.63 and less than 5.00, respectively.

In assay [1], `CC[C@H](C)[C@@H]1NC(=O)[C@@H]2CSSC[C@@H]3NC(=O)[C@H](C(C)C)NC(=O)[C@H](CC(C)C)NC(=O)[C@H](CC(N)=O)NC(=O)[C@@H]4CCCN4C(=O)[C@H](CCCNC(=N)N)NC(=O)[C@H](CSSC[C@H](NC(=O)[C@@H](N)CC(=O)O)C(=O)N[C@@H](CC(C)C)C(=O)NCC(=O)N[C@@H](Cc4ccc(-c5ccccc5)cc4)C(=O)N[C@@H](CCSC)C(=O)N[C@@H](CCCNC(=N)N)C(=O)N[C@@H](CCCCN)C(=O)N2)NC(=O)[C@H](CSSC[C@@H](C(=O)N[C@@H](CCCCN)C(=O)N[C@@H](Cc2ccc(O)cc2)C(=O)N[C@H](C(=O)N[C@@H](Cc2ccccc2)C(N)=O)C(C)C)NC(=O)[C@H](Cc2c[nH]c4ccccc24)NC(=O)[C@H](CCCCN)NC(=O)[C@H](Cc2cnc[nH]2)NC(=O)[C@H]([C@@H](C)O)NC(=O)[C@H](CCCNC(=N)N)NC(=O)[C@H](CO)NC3=O)NC(=O)[C@H](CCCCN)NC(=O)[C@H](CC(=O)O)NC(=O)[C@H](CC(N)=O)NC(=O)[C@H](CC(=O)O)NC(=O)[C@@H]2CCCN2C1=O` had a negative-log IC50 (pIC50) of 7.07.

Consider `CC[C@H](C)[C@@H]1NC(=O)[C@@H]2CSSC[C@@H]3NC(=O)[C@H](C(C)C)NC(=O)[C@H](CC(C)C)NC(=O)[C@H](CC(N)=O)NC(=O)[C@@H]4CCCN4C(=O)[C@H](CCCNC(=N)N)NC(=O)[C@H](CSSC[C@H](NC(=O)[C@@H](N)CC(=O)O)C(=O)N[C@@H](CC(C)C)C(=O)NCC(=O)N[C@@H](Cc4ccccc4)C(=O)N[C@@H](CC4CCCCC4)C(=O)N[C@@H](CCCNC(=N)N)C(=O)N[C@@H](CCCCN)C(=O)N2)NC(=O)[C@H](CSSC[C@@H](C(=O)N[C@@H](CCCCN)C(=O)N[C@@H](Cc2ccc(O)cc2)C(=O)N[C@H](C(=O)N[C@@H](Cc2ccccc2)C(N)=O)C(C)C)NC(=O)[C@H](Cc2c[nH]c4ccccc24)NC(=O)[C@H](CCCCN)NC(=O)[C@H](Cc2cnc[nH]2)NC(=O)[C@H]([C@@H](C)O)NC(=O)[C@H](CCCNC(=N)N)NC(=O)[C@H](CO)NC3=O)NC(=O)[C@H](CCCCN)NC(=O)[C@H](CC(=O)O)NC(=O)[C@H](CC(N)=O)NC(=O)[C@H](CC(=O)O)NC(=O)[C@@H]2CCCN2C1=O`, for which the pIC50 in assay [1] was 8.40; in assay [2] it was 5.55. `CC[C@H](C)[C@@H]1NC(=O)[C@@H]2CSSC[C@@H]3NC(=O)[C@H](C(C)C)NC(=O)[C@H](CC(C)C)NC(=O)[C@H](CC(N)=O)NC(=O)[C@@H]4CCCN4C(=O)[C@H](CCCNC(=N)N)NC(=O)[C@H](CSSC[C@H](NC(=O)[C@@H](N)CC(=O)O)C(=O)N[C@@H](CC(C)C)C(=O)NCC(=O)N[C@@H](Cc4ccccc4)C(=O)N[C@@H](Cc4cccc5ccccc45)C(=O)N[C@@H](CCCNC(=N)N)C(=O)N[C@@H](CCCCN)C(=O)N2)NC(=O)[C@H](CSSC[C@@H](C(=O)N[C@@H](CCCCN)C(=O)N[C@@H](Cc2ccc(O)cc2)C(=O)N[C@H](C(=O)N[C@@H](Cc2ccccc2)C(N)=O)C(C)C)NC(=O)[C@H](Cc2c[nH]c4ccccc24)NC(=O)[C@H](CCCCN)NC(=O)[C@H](Cc2cnc[nH]2)NC(=O)[C@H]([C@@H](C)O)NC(=O)[C@H](CCCNC(=N)N)NC(=O)[C@H](CO)NC3=O)NC(=O)[C@H](CCCCN)NC(=O)[C@H](CC(=O)O)NC(=O)[C@H](CC(N)=O)NC(=O)[C@H](CC(=O)O)NC(=O)[C@@H]2CCCN2C1=O`: the results for the pIC50 in assay [1] and in assay [2] were 8.40 and 6.40, respectively. For `CC[C@H](C)[C@@H]1NC(=O)[C@@H]2CSSC[C@@H]3NC(=O)[C@H](C(C)C)NC(=O)[C@H](CC(C)C)NC(=O)[C@H](CC(N)=O)NC(=O)[C@@H]4CCCN4C(=O)[C@H](CCCNC(=N)N)NC(=O)[C@H](CSSC[C@H](NC(=O)[C@@H](N)CC(=O)O)C(=O)N[C@@H](CC(C)C)C(=O)NCC(=O)N[C@@H](Cc4ccccc4)C(=O)N[C@@H](CCSC)C(=O)N[C@@H](CCCNC(=N)N)C(=O)N[C@@H](CCCCN)C(=O)N2)NC(=O)[C@H](CSSC[C@@H](C(=O)N[C@@H](CCCCN)C(=O)N[C@@H](Cc2ccc(O)cc2)C(=O)N[C@H](C(=O)N[C@@H](Cc2ccccc2)C(N)=O)C(C)C)NC(=O)[C@H](Cc2c[nH]c4ccccc24)NC(=O)[C@H](CCCNC(=N)N)NC(=O)[C@H](Cc2cnc[nH]2)NC(=O)[C@H]([C@@H](C)O)NC(=O)[C@H](CCCNC(=N)N)NC(=O)[C@H](CO)NC3=O)NC(=O)[C@H](CCCCN)NC(=O)[C@H](CC(=O)O)NC(=O)[C@H](CC(N)=O)NC(=O)[C@H](CC(=O)O)NC(=O)[C@@H]2CCCN2C1=O`, the negative logarithm of the IC50 (pIC50) in assay [1] is 8.10. Same read-out and setting: the figure for `CC[C@H](C)[C@@H]1NC(=O)[C@@H]2CSSC[C@@H]3NC(=O)[C@H](C(C)C)NC(=O)[C@H](CC(C)C)NC(=O)[C@H](CC(N)=O)NC(=O)[C@@H]4CCCN4C(=O)[C@H](CCCNC(=N)N)NC(=O)[C@H](CSSC[C@H](NC(=O)[C@@H](N)CC(=O)O)C(=O)N[C@@H](CC(C)C)C(=O)NCC(=O)N[C@@H](Cc4ccccc4)C(=O)N[C@@H](CCSC)C(=O)N[C@@H](CCCNC(=N)N)C(=O)N[C@@H](CCCCN)C(=O)N2)NC(=O)[C@H](CSSC[C@@H](C(=O)N[C@@H](CCCCN)C(=O)N[C@@H](Cc2ccc(O)cc2)C(=O)N[C@H](C(=O)N[C@@H](Cc2ccccc2)C(N)=O)C(C)C)NC(=O)[C@H](Cc2c[nH]c4ccccc24)NC(=O)[C@H](CCCCN)NC(=O)[C@H](Cc2cnc[nH]2)NC(=O)[C@H](Cc2cnc[nH]2)NC(=O)[C@H](CCCNC(=N)N)NC(=O)[C@H](CO)NC3=O)NC(=O)[C@H](CCCCN)NC(=O)[C@H](CC(=O)O)NC(=O)[C@H](CC(N)=O)NC(=O)[C@H](CC(=O)O)NC(=O)[C@@H]2CCCN2C1=O` (H-DCLGFMRKCIPDNDKCCRPNLVCSRHHKWCKYVF-NH2; disulfide 2-17, 9-23, 16-30) is 8.40. For the compound `CC[C@H](C)[C@@H]1NC(=O)[C@@H]2CSSC[C@@H]3NC(=O)[C@H](C(C)C)NC(=O)[C@H](CC(C)C)NC(=O)[C@H](CC(N)=O)NC(=O)[C@@H]4CCCN4C(=O)[C@H](CCCNC(=N)N)NC(=O)[C@H](CSSC[C@H](NC(=O)[C@@H](N)CC(=O)O)C(=O)N[C@@H](CC(C)C)C(=O)NCC(=O)N[C@@H](CCSC)C(=O)N[C@@H](CCSC)C(=O)N[C@@H](CCCNC(=N)N)C(=O)N[C@@H](CCCCN)C(=O)N2)NC(=O)[C@H](CSSC[C@@H](C(=O)N[C@@H](CCCCN)C(=O)N[C@@H](Cc2ccc(O)cc2)C(=O)N[C@H](C(=O)N[C@@H](Cc2ccccc2)C(N)=O)C(C)C)NC(=O)[C@H](Cc2c[nH]c4ccccc24)NC(=O)[C@H](CCCCN)NC(=O)[C@H](Cc2cnc[nH]2)NC(=O)[C@H]([C@@H](C)O)NC(=O)[C@H](CCCNC(=N)N)NC(=O)[C@H](CO)NC3=O)NC(=O)[C@H](CCCCN)NC(=O)[C@H](CC(=O)O)NC(=O)[C@H](CC(N)=O)NC(=O)[C@H](CC(=O)O)NC(=O)[C@@H]2CCCN2C1=O` (H-DCLGMMRKCIPDNDKCCRPNLVCSRTHKWCKYVF-NH2; disulfide 2-17, 9-23, 16-30), in assay [2], the negative logarithm of the IC50 (pIC50) is less than 5.00.
